From patent US4552882A, “7-(1-Pyrrolyl) derivatives of 1-ethyl-1,4-dihydro-4-oxoquinoline-3-carboxylic acids and 1-ethyl-1,4-dihydro-4-oxo-1,8-naphthyridine-3-carboxylic acids and their use as antimicrobial agents” (Provesan, SA, priority 1983, dated 1985) come the findings set out here.

What all share (assay type): cell-based
Assay [1] deals with Enterobacter aerogenes ATCC 15038. Put plainly: MIC in vitro. As to conditions: Klebsiella aerogenes, ATCC15038, Dextrose agar, 37° C., 20 hours. From the text:
(§1) (G. L. Daquet and Y. A. Chabbect, Techniques en bacteriologie (Bacteriological techniques), vol. 3, Flammarion Medecine Sciences, Paris, 1972 and W. B. Hugo and A. D. Rusell, Pharmaceutical Microbiology, Blackwell Scientific Publications, London, (1977)). Antibiotic medium no. 1 (seed agar) (Oxoid CM 327) Tryptone-soya broth (Oxoid CM 129) Ringer's physiological solution 1/4 (oxoid BR 52) Dextrose agar (BBL-11165) 0.1 N NaOH "Enterobacter aerogenes" ATCC 15038 Each of the microorganisms is seeded by streaking in tubes of Antibiotic medium No. 1 (seed agar), which are then incubated at 37° C. for 20 hours. Using a culture loop, the cultures are then seeded in tryptone-soyabroth and incubated at 37° C. for 20 hours. The culture obtained is diluted to 1/4 with Ringer's physiological solution, so as to obtain a standardized suspension of 10^7 -10^9 cfu/ml for each organism. Starting from a solution of 1,000 μg/ml in 0.1 N NaOH, each product is diluted in Dextrose agar (previously melted and maintained at 50° C.), with successive dilutions so as to obtain the following concentrations: 64--32--16--8--4--2--1--0.5--0.25--0.125 μg of derivative/ml medium. For each product, the solution of each concentration is subsequently distributed into Petri dishes 10 cm in diameter, with 10 ml of medium per dish and the same number of dishes as microorganisms to be tested. As soon as the medium has cooled, the dishes are seeded with the inoculations using 0.4 ml of inoculation per dish. They are spread with a Driglasky loop and the supernatant is removed. The seeded dishes are incubated at 37° C. for 20 hours.

For assay [2], the system named is Pseudomonas aeruginosa ATCC 25115. Put plainly: MIC in vitro. The conditions noted are these: ATCC25115, Dextrose agar, 37° C., 20 hours.
Source text: as §1, with “"Pseudomonas aeruginosa"” for “"Enterobacter aerogenes"”, “25115” for “15038”

The subject of assay [3] is gram-negative microorganisms. Briefly: in vitro antimicrobial activity compared to pipemidic acid. As for the experimental part:
(G. L. Daquet and Y. A. Chabbect, Techniques en bacteriologie (Bacteriological techniques), vol. 3, Flammarion Medecine Sciences, Paris, 1972 and W. B. Hugo and A. D. Rusell, Pharmaceutical Microbiology, Blackwell Scientific Publications, London, (1977)).
Antibiotic medium no. 1 (seed agar) (Oxoid CM 327)
Tryptone-soya broth (Oxoid CM 129)
Ringer's physiological solution 1/4 (oxoid BR 52) Dextrose agar (BBL-11165) 0.1 N NaOH
Each of the microorganisms is seeded by streaking in tubes of Antibiotic medium No. 1 (seed agar), which are then incubated at 37° C. for 20 hours. Using a culture loop, the cultures are then seeded in tryptone-soyabroth and incubated at 37° C. for 20 hours. The culture obtained is diluted to 1/4 with Ringer's physiological solution, so as to obtain a standardized suspension of 10^7 -10^9 cfu/ml for each organism.
Starting from a solution of 1,000 μg/ml in 0.1 N NaOH, each product is diluted in Dextrose agar (previously melted and maintained at 50° C.), with successive dilutions so as to obtain the following concentrations: 64--32--16--8--4--2--1--0.5--0.25--0.125 μg of derivative/ml medium.
For each product, the solution of each concentration is subsequently distributed into Petri dishes 10 cm in diameter, with 10 ml of medium per dish and the same number of dishes as microorganisms to be tested.
As soon as the medium has cooled, the dishes are seeded with the inoculations using 0.4 ml of inoculation per dish. They are spread with a Driglasky loop and the supernatant is removed. The seeded dishes are incubated at 37° C. for 20 hours.

In brackets after ≈: the same amount, converted by molar mass.

Broadly, the MIC is the smallest concentration in the dilution series that meets the test's criterion for growth inhibition. A higher MIC goes with weaker potency. For the compound `CCn1cc(C(=O)O)c(=O)c2ccc(-n3cccc3)nc21` [Example 3, 1-ethyl-1,4-dihydro-4-oxo-7-(1-pyrrolyl)-1,8-naphthyridine-3-carboxylic acid], the minimal inhibitory concentration (MIC) in assay [1] and in assay [2] was greater than 64 µg/mL each time. Further, the “activity compared to pipemidic acid” value in assay [3] was “activity of the same order as that of pipemidic acid”.
For the compound `CCn1cc(C(=O)O)c(=O)c2cc(F)c(-n3cccc3)cc21` [Example 2, 6-fluoro-7-(1-pyrrolyl)-1-ethyl-1,4-dihydro-4-oxo-3-quinolinecarboxylic acid], the MIC was 8 µg/mL (≈ 26.6 µM) in assay [1] and 16 µg/mL (≈ 53.3 µM) in assay [2].
`CCn1cc(C(=O)O)c(=O)c2cnc(N3CCNCC3)nc21` [Pipemidic acid, reference compound]: the minimal inhibitory concentration (MIC) in assay [1] and in assay [2] was 32 µg/mL (≈ 105 µM) throughout.
Take `CCn1cc(C(=O)O)c(=O)c2ccc(-n3cccc3)cc21` [Example 1, 7-(1-pyrrolyl)-1-ethyl-1,4-dihydro-4-oxo-3-quinolinecarboxylic acid]: the MIC in assay [1] and in assay [2] was greater than 64 µg/mL in each case.
Regarding `CCn1cc(C(=O)O)c(=O)c2cc(F)c(-n3cccc3)nc21` [Example 4, 1-ethyl-1,4-dihydro-4-oxo-6-fluoro-7-(1-pyrrolyl)-1,8-naphthyridine-3-carboxylic acid], the minimum inhibitory concentration (MIC) is 4 µg/mL (≈ 13.3 µM) in assay [1] and 32 µg/mL (≈ 106 µM) in assay [2].
